In US12090163B2, “Pharmaceutical compositions” (CIPLA LIMITED, priority 2017, dated 2024):
Where two headings read alike, the source gives them in different places.

Legend:
HIV-1NL4-3 = experiment: Two-drug combination anti-HIV assay in MT4 cells, MacSynergy II analysis; assay type: cell-based; set-up: Antiviral Activity Synergy volume / Antiviral Activity Antagonism volume: unit not given here
Protocol: (§1) This two-drug combination analysis study was performed using the Prichard and Shipman MacSynergy II three dimensional model for statistical evaluation of combination anti-HIV assays. Using a standardized microtiter plate format, each combination assay was performed in MT4 cells acutely infected with HIV-1NL4-3.
(§2) MT4 cells (obtained from the NIH AIDS Research and Reference Reagent Program) were passaged in T-75 flasks prior to use in the antiviral assay. On the day preceding the assay, the cells were split 1:2 to assure they were in an exponential growth phase at the time of infection. Total cell and viability quantification was performed using a hemacytometer and trypan blue exclusion. Cells with greater than 95% cell viability were utilized in the assay. The cells were re-suspended in tissue culture medium and added to the drug-containing microtiter plates in a volume of 110 μL and at a seeding density of 5.0×10^3 cells/well.
(§3) Combination antiviral efficacy was evaluated on three identical assay plates (i.e., triplicate measurements) that included cell control wells (cells only) and virus control wells (cells plus virus). Combination cytotoxicity was evaluated in parallel on two identical assay plates (i.e., duplicate measurements) that included cell control wells.

MT4 cells = experiment: Two-drug combination cytotoxicity in uninfected MT4 cells, MacSynergy II analysis
Protocol: as §1, §2, §3

[1] = two-drug combination with the pivalate fumarate, HIV-1NL4-3 in MT4 cells
[2] = two-drug combination with the pivalate fumarate, MT4 cells infected with HIV-1NL4-3
[3] = two-drug combination with the pivalate fumarate, uninfected MT4 cells

Compound | Interpretation Antiviral (HIV-1NL4-3; [1]) | Antiviral Activity Antagonism volume (HIV-1NL4-3; [2]) | Antiviral Activity Synergy volume (HIV-1NL4-3; [2]) | other results
COC(=O)N[C@H](C(=O)N[C@@H](Cc1ccccc1)[C@@H](O)CN(Cc1ccc(-c2ccccn2)cc1)NC(=O)[C@@H](NC(=O)OC)C(C)(C)C)C(C)(C)C [Atazanavir] | Additive | −3.50 | 39.1 | 
CC(C)c1nc(CN(C)C(=O)N[C@@H](CCN2CCOCC2)C(=O)N[C@H](CC[C@H](Cc2ccccc2)NC(=O)OCc2cncs2)Cc2ccccc2)cs1 [Cobicistat] | Additive | −6.12 | 0 | 
CC(C)CN(C[C@@H](O)[C@H](Cc1ccccc1)NC(=O)O[C@H]1CO[C@H]2OCC[C@H]21)S(=O)(=O)c1ccc(N)cc1 [Darunavir] |  |  |  | Antiviral Activity Antagonism volume (HIV-1NL4-3): 188/−36.5; Antiviral Activity Synergy volume (HIV-1NL4-3): 188/−36.5
C[C@@H]1CCO[C@H]2Cn3cc(C(=O)NCc4ccc(F)cc4F)c(=O)c(O)c3C(=O)N12 [Dolutegravir] | Additive | −4.46 | 17.9 | 
O=C1Nc2ccc(Cl)cc2[C@@](C#CC2CC2)(C(F)(F)F)O1 [Efavirenz] |  | −5.92 | 79.0 | 
COc1cc2c(cc1Cc1cccc(Cl)c1F)c(=O)c(C(=O)O)cn2[C@H](CO)C(C)C [Elvitegravir] |  | 0 | 67.3 | 
Nc1nc(=O)n([C@@H]2CS[C@H](CO)O2)cc1F [Emtricitabine] |  | −8.75 | 98.8 | 
Cc1ccnc2c1NC(=O)c1cccnc1N2C1CC1 [Nevirapine] | Additive | −9.09 | 47.6 | 
Cc1nnc(C(=O)NC(C)(C)c2nc(C(=O)NCc3ccc(F)cc3)c(O)c(=O)n2C)o1 [Raltegravir] |  |  |  | Antiviral Activity Antagonism volume (HIV-1NL4-3): 1.61/−2.72; Antiviral Activity Synergy volume (HIV-1NL4-3): 1.61/−2.72; Interpretation Antiviral (HIV-1NL4-3): Additive; Cytotoxicity Antagonism volume (MT4 cells; [3]): −4.70; Interpretation Cytotoxicity (MT4 cells; [3]): Additive
C[C@H](Cn1cnc2c(N)ncnc21)OCP(=O)(O)O [Tenofovir, 9-R-[(2-phosphonomethoxy)propyl]adenine] |  |  |  | Antiviral Activity Antagonism volume (HIV-1NL4-3): 79.0/−7.08; Antiviral Activity Synergy volume (HIV-1NL4-3): 79.0/−7.08; Cytotoxicity Antagonism volume (MT4 cells): 0/0; Cytotoxicity Synergy volume (MT4 cells): 0/0; Interpretation Cytotoxicity (MT4 cells; [3]): Additive
Tenofovir alafenamide hemifumarate [TAF] | Additive | −47.1 | 41.2 | Cytotoxicity Antagonism volume (MT4 cells; [3]): 0/0; Cytotoxicity Synergy volume (MT4 cells; [3]): 0/0; Interpretation Cytotoxicity (MT4 cells; [3]): Additive
